Data taken from paper PMC12655351, “Synthesis and Anticancer Activity Evaluation of New 5-((5-Nitrofuran-2-yl)allylidene)-2-thioxo-4-thiazolidinones” (Pharmaceuticals, 2025).

Key:
[1] = test system: MDA-MB-231/ATCC; conditions: 48 h
[2] = test system: SNB-19; experiment: NCI-60 SRB screen; conditions: SNB-19, 48 h; for GI50 / CC50: Homo sapiens; for CC50: read-out: LC50, SNB-19, 48 h
[3] = test system: SF-268; experiment: cells; conditions: Homo sapiens, SF-268, 48 h; for CC50: read-out: LC50, SF-268, 48 h
[4] = test system: HS 578T; experiment: cells; conditions: Homo sapiens, 48 h; for GI50: HS 578T; for CC50: read-out: LC50
[5] = test system: SF-268; conditions: SF-268, 48 h
[6] = test system: MCF-7; experiment: [3H]-thymidine incorporation assay; assay type: cell-based; conditions: Homo sapiens, MCF7; MCF-7, 24 h of treatment
Outline: (§1)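 Cells treated 24 h with compound at 1, 5, 10 μM (MCF-7) or 5, 15, 30 μM (MDA-MB-231), in triplicate, then pulsed with 0.5 μCi [3H]-thymidine for 4 h at 37 °C. TCA-precipitated, lysed cells counted by scintillation; uptake expressed as percent of control.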

[7] = test system: MDA-MB-231; experiment: [3H]-thymidine incorporation assay; assay type: cell-based; conditions: Homo sapiens; MDA-MB-231, 24 h of treatment
Outline: as §1

[8] = test system: NCI/ADR-RES; experiment: cells; conditions: Homo sapiens, 48 h; for CC50: read-out: LC50, NCI/ADR-RES, 48 h
[9] = test system: MALME-3M; experiment: NCI-60 SRB screen; conditions: 48 h; for GI50 / CC50: Homo sapiens, Malme-3M; for CC50: read-out: LC50, MALME-3M, 48 h; for TGI: MALME-3M
[10] = test system: HT29; experiment: cells; conditions: Homo sapiens, HT-29, 48 h; for GI50: HT29, 48 h; for CC50: read-out: LC50, HT29, 48 h
[11] = test system: NCI-H266; experiment: NCI-60 SRB screen; conditions: for GI50 / CC50: Homo sapiens, 48 h; for GI50 / TGI: NCI-H266, 48 h; for CC50: read-out: LC50, NCI-H266, 48 h
[12] = test system: SF-539; conditions: SF-539, 48 h
[13] = test system: SF-539; experiment: cells; conditions: Homo sapiens, SF-539, 48 h
[14] = test system: MOLT-4; experiment: cells; conditions: Homo sapiens, MOLT-4, 48 h; for CC50: read-out: LC50, MOLT-4, 48 h
[15] = test system: Leukemia; conditions: Leukemia subpanel
[16] = test system: RPMI-8226; conditions: RPMI-8226, 48 h
[17] = test system: NCI-H23; experiment: cells; conditions: Homo sapiens, NCI-H23, 48 h; for CC50: read-out: LC50, NCI-H23, 48 h
[18] = test system: Non-small cell lung cancer; experiment: cells; conditions: Homo sapiens; for GI50: read-out: MG_MID GI50; for CC50: read-out: MG_MID LC50
[19] = test system: CAKI-1; experiment: cells; conditions: Homo sapiens, CAKI-1, 48 h
[20] = test system: RXF 393; experiment: NCI-60 SRB screen; conditions: RXF 393, 48 h; for GI50: Homo sapiens
[21] = test system: CCRF-CEM; experiment: cells; conditions: Homo sapiens, 48 h
[22] = test system: DU-145; experiment: cells; conditions: Homo sapiens, DU-145, 48 h; for CC50: read-out: LC50, DU-145, 48 h
[23] = test system: MDA-MB-435; conditions: MDA-MB-435, 48 h
[24] = test system: Renal Cancer; experiment: cells; conditions: Homo sapiens; for GI50: read-out: MG_MID GI50; for CC50: read-out: MG_MID LC50
[25] = test system: OVCAR-5; experiment: NCI-60 SRB screen; conditions: OVCAR-5, 48 h; for GI50: Homo sapiens
[26] = test system: HOP-92; experiment: NCI-60 SRB screen; conditions: HOP-92, 48 h; for GI50 / CC50: Homo sapiens; for CC50: read-out: LC50, HOP-92, 48 h
[27] = test system: HCT-116; conditions: HCT-116, 48 h
[28] = test system: TK-10; experiment: cells; conditions: Homo sapiens, TK-10, 48 h; for CC50: read-out: LC50, TK-10, 48 h
[29] = test system: CCRF-CEM; conditions: 48 h

## CCCC(C(=O)O)N1C(=O)/C(=C/C=C/c2ccc([N+](=O)[O-])o2)SC1=S (centres unmarked) [4b, 2-((Z)-5-((E)-3-(5-Nitrofuran-2-yl)allylidene)-4-oxo-2-thioxothiazolidin-3-yl)pentanoic acid]
[1]
  TGI: 4.29 µM
[2]
  GI50: 2.01 µM
  CC50: 8.45 µM
  TGI: 4.12 µM
[3]
  GI50: 2.04 µM
  CC50: 9.72 µM
[4]
  GI50: 1.87 µM
  CC50: > 100 µM
[5]
  TGI: 4.45 µM
[6]
  IC50: 6.13 µM
[7]
  IC50: 3.66 µM
[8]
  GI50: 2.03 µM
  CC50: 21.4 µM
[9]
  GI50: 1.8 µM
  CC50: 6.4 µM
  TGI: 3.40 µM
[10]
  GI50: 1.95 µM
  CC50: 7.45 µM
[11]
  GI50: 2.62 µM
  CC50: 78.9 µM
  TGI: 7.83 µM
[12]
  TGI: 4.77 µM
[13]
  GI50: 2.12 µM
[14]
  GI50: 3.3 µM
  CC50: > 100 µM
[15]
  MG_MID TGI: 9.43 µM
[16]
  TGI: 5.11 µM
[17]
  GI50: 1.97 µM
  CC50: 8.57 µM
[18]
  GI50: 2.37 µM
  CC50: 29.3 µM
[19]
  GI50: 1.75 µM
[20]
  GI50: 1.89 µM
  TGI: 3.40 µM
[21]
  GI50: 2.27 µM
[22]
  GI50: 2.42 µM
  CC50: 22.8 µM
[23]
  TGI: 3.31 µM
[24]
  GI50: 2.25 µM
  CC50: 18.5 µM
[25]
  GI50: 1.89 µM
  TGI: 4.32 µM
[26]
  TGI: 7.69 µM
  GI50: 2.63 µM
  CC50: 31.9 µM
[27]
  TGI: 3.90 µM
[28]
  GI50: 3.27 µM
  CC50: 27.6 µM
[29]
  TGI: 7.26 µM

## CCCCC(C(=O)O)N1C(=O)/C(=C/C=C/c2ccc([N+](=O)[O-])o2)SC1=S (centres unmarked) [6b, 2-((Z)-5-((E)-3-(5-nitrofuran-2-yl)allylidene)-4-oxo-2-thioxothiazolidin-3-yl)hexanoic acid]
[1]
  TGI: 4.45 µM
[2]
  GI50: 2.1 µM
  CC50: 13.5 µM
  TGI: 4.88 µM
[3]
  GI50: 2.15 µM
  CC50: 16.8 µM
[4]
  GI50: 3.38 µM
  CC50: > 100 µM
[5]
  TGI: 5.24 µM
[6]
  IC50: 5.81 µM
[7]
  IC50: 2.01 µM
[8]
  GI50: 2.24 µM
  CC50: 29.3 µM
[9]
  GI50: 2.21 µM
  CC50: 9.02 µM
  TGI: 4.47 µM
[10]
  GI50: 1.98 µM
  CC50: 6.95 µM
[11]
  GI50: 2.22 µM
  CC50: 76.1 µM
  TGI: 5.84 µM
[12]
  TGI: 4.17 µM
[13]
  GI50: 1.89 µM
[14]
  GI50: 3.28 µM
  CC50: 90.2 µM
[15]
  MG_MID TGI: 9.84 µM
[16]
  TGI: 6.09 µM
[17]
  GI50: 1.85 µM
  CC50: 6.64 µM
[18]
  GI50: 2.43 µM
  CC50: 38.7 µM
[19]
  GI50: 1.67 µM
[20]
  GI50: 1.69 µM
  TGI: 3.20 µM
[21]
  GI50: 3.1 µM
[22]
  GI50: 3.35 µM
  CC50: 32.9 µM
[23]
  TGI: 3.95 µM
[24]
  GI50: 2.24 µM
  CC50: 17.7 µM
[25]
  GI50: 2.08 µM
  TGI: 4.62 µM
[26]
  TGI: 9.85 µM
  GI50: 3.57 µM
  CC50: 42.2 µM
[27]
  TGI: 4.05 µM
[28]
  GI50: 3.13 µM
  CC50: 28.3 µM
[29]
  TGI: 10.2 µM
